Test results: US7485750B2, “Hydroxamic acid derivatives and the preparation method thereof” (Amorepacific Corporation, priority 2005, dated 2009)

How the values were obtained:
[1] = tested on: Human keratinocyte (HaCaT) cell line; assay: Antioxidative effect: lipid peroxidation assay (MDA, 4-HNE) in t-BHP-treated HaCaT cells; assay type: cell-based; set-up: unit not given here; details: control without treatment = 100
Protocol: This example illustrates the antioxidative effect of the hydroxamic acid derivatives obtained in Examples 1 to 24, in comparison with tocoperol and EGCG (EpiGalloCatechin Gallate). Human keratinocyte (HaCaT) cell line was divided into 1.0×10^6 per 60 mm dish, and was cultured for 1 day at 37° C., 5% CO2, using DMEM (FBS 10%) medium containing penicillin/streptomycin, and then was treated with 10^−4 mol % of hydroxamic acid derivatives. The same treatment was performed with tocoperol and EGCG, as positive controls, of the same concentration. The next day, HaCaT cells were treated with 4 mM of BHP (t-butyl hydroperoixe), and were cultured for 4 hours at 37° C., 5% CO2, and the cells were obtained. Lysis of the cells was performed on the cells by way of repeating the freeze/thawing process. The following experiment was performed according to the method presented in the assay kit.
Cabiochem Lipid peroxidation assay kit (Cat. No. 437634) was used as reagent in the present invention, and lipid peroxidation was measured using the principle that peroxidation products of ester which relate to long chain unsaturated fatty acid, such as malondialdehyde (MDA), and 4-hydroxyalkenal, i.e., 4-hydroxy-2(E)-nonenal (4-HNE), react with the reagent to form a stable compound at 586 nm.

Human fibroblasts = assay: Collagen biosynthesis: procollagen type (I) ELISA in human fibroblasts; assay type: cell-based; details: 10^-4 M in serum-free medium, 24 hours, relative value, control group = 100
Protocol: Human fibroblasts were seeded into 24-well plates at 1×10^5 cells per well and then cultured to 90% of growth. The fibroblastes were then cultured in serum-free DMEM for 24 hours and treated with 10^−4 M of the hydroxamic acid derivatives of Examples 1-24, tocoperol and EGCG, in serum-free medium, and then incubated in a CO2 incubator for 24 hours.
For each supernatant, procollagen production was measured with procollagen type (I) ELISA kit. The results are shown in Table 2, in which collagen biosynthesis was evaluated as a relative value, in consideration that the value of the control group with no material treated is 100.

mice = assay: Contraction of skin pores in mice after topical application; assay type: in vivo; details: 0.5 ml of 1% solution in 1,3-butylene glycol:ethanol=7:3 applied for 1 day, back biopsied 24 hours later, control group 65
Protocol: The compounds of Examples 1-24 were dissolved in solvent (1,3-butylene glycol:ethanol=7:3) to give 1% solution of test samples. To forty-six (46) mice, 0.5 ml of the test sample solution was applied for 1 day, 24 hours later, their back part was biopsied. The epidermis was separated, then soaked in 0.5% acetic acid, then fixed in 10% formalin, and cut vertically by […]. After dying with hematoxylin and eosin, the size of skin pore was measured using Mechanical eyepiece micrometer.

[2] = HaCaT cells pretreated with 10^-4 mol % test material, next day 4 mM t-BHP for 4 hours, lipid peroxidation at 586 nm

O=C(O[C@@H]1Cc2c(O)cc(O)cc2O[C@@H]1c1cc(O)c(O)c(O)c1)c1cc(O)c(O)c(O)c1 [EGCG, EpiGalloCatechin Gallate, reference compound]
MDA, HNE [1, 2]: 230 | Collagen biosynthesis (%) (Human fibroblasts): 120% | Size of skin pore (mice): 60 µm

COc1ccc(C(=O)Nc2ccc(C(=O)NO)cc2)cc1OC [Example 1, N-[4-(N-hydroxycarbamoyl)phenyl][3,4-dimethoxyphenyl]carboxyamide]
MDA, HNE [1, 2]: 190 | Collagen biosynthesis (%) (Human fibroblasts): 123% | Size of skin pore (mice): 56 µm

CCOc1ccc(C(=O)Nc2ccc(C(=O)NO)cc2)cc1OCC [Example 2, N-[4-(N-hydroxycarbamoyl)phenyl][3,4-diethoxyphenyl]carboxyamide]
MDA, HNE [1, 2]: 200 | Collagen biosynthesis (%) (Human fibroblasts): 131% | Size of skin pore (mice): 50 µm

CC(C)Oc1ccc(C(=O)Nc2ccc(C(=O)NO)cc2)cc1OC(C)C [Example 3, N-[4-(N-hydroxycarbamoyl)phenyl][3,4-diisopropoxyphenyl]carboxyamide]
MDA, HNE [1, 2]: 211 | Collagen biosynthesis (%) (Human fibroblasts): 122% | Size of skin pore (mice): 54 µm

CCCOc1ccc(C(=O)Nc2ccc(C(=O)NO)cc2)cc1OCCC [Example 4, N-[4-(N-hydroxycarbamoyl)phenyl][3,4-dipropoxyphenyl]carboxyamide]
MDA, HNE [1, 2]: 189 | Collagen biosynthesis (%) (Human fibroblasts): 111% | Size of skin pore (mice): 52 µm

CCCCOc1ccc(C(=O)Nc2ccc(C(=O)NO)cc2)cc1OCCCC [Example 5, N-[4-(N-hydroxycarbamoyl)phenyl][3,4-dibutoxyphenyl]carboxyamide]
MDA, HNE [1, 2]: 211 | Collagen biosynthesis (%) (Human fibroblasts): 121% | Size of skin pore (mice): 53 µm

CC(C)(C)Oc1ccc(C(=O)Nc2ccc(C(=O)NO)cc2)cc1OC(C)(C)C [Example 6, N-[4-(N-hydroxycarbamoyl)phenyl][3,4-di-tert-butoxyphenyl]carboxyamide]
MDA, HNE [1, 2]: 231 | Collagen biosynthesis (%) (Human fibroblasts): 135% | Size of skin pore (mice): 54 µm

COc1ccc(C(=O)Nc2ccc(C(=O)N(C)O)cc2)cc1OC [Example 7, [4-((3,4-dimethoxyphenyl)carbonylamino)phenyl]-N-hydroxy-N-methyl carboxyamide]
MDA, HNE [1, 2]: 220 | Collagen biosynthesis (%) (Human fibroblasts): 111% | Size of skin pore (mice): 55 µm

CCOc1ccc(C(=O)Nc2ccc(C(=O)N(C)O)cc2)cc1OCC [Example 8, [4-((3,4-diethoxyphenyl)carbonylamino)phenyl]-N-hydroxy-N-methyl carboxyamide]
MDA, HNE [1, 2]: 190 | Collagen biosynthesis (%) (Human fibroblasts): 112% | Size of skin pore (mice): 50 µm

CC(C)Oc1ccc(C(=O)Nc2ccc(C(=O)N(C)O)cc2)cc1OC(C)C [Example 9, [4-((3,4-diisopropoxyphenyl)carbonylamino)phenyl]-N-hydroxy-N-methyl carboxyamide]
MDA, HNE [1, 2]: 187 | Collagen biosynthesis (%) (Human fibroblasts): 123% | Size of skin pore (mice): 51 µm

CCCOc1ccc(C(=O)Nc2ccc(C(=O)N(C)O)cc2)cc1OCCC [Example 10, [4-((3,4-dipropoxyphenyl)carbonylamino)phenyl]-N-hydroxy-N-methyl carboxyamide]
MDA, HNE [1, 2]: 140 | Collagen biosynthesis (%) (Human fibroblasts): 126% | Size of skin pore (mice): 52 µm

CCCCOc1ccc(C(=O)Nc2ccc(C(=O)N(C)O)cc2)cc1OCCCC [Example 11, [4-((3,4-dibutoxyphenyl)carbonylamino)phenyl]-N-hydroxy-N-methylcarboxyamide]
MDA, HNE [1, 2]: 198 | Collagen biosynthesis (%) (Human fibroblasts): 121% | Size of skin pore (mice): 56 µm

CN(O)C(=O)c1ccc(NC(=O)c2ccc(OC(C)(C)C)c(OC(C)(C)C)c2)cc1 [Example 12, [4-((3,4-di-tert-butoxyphenyl)carbonylamino)phenyl]-N-hydroxy-N-methyl carboxyamide]
MDA, HNE [1, 2]: 176 | Collagen biosynthesis (%) (Human fibroblasts): 123% | Size of skin pore (mice): 54 µm

COc1ccc(C(=O)Nc2ccc(CC(=O)NO)cc2)cc1OC [Example 13, N-(4-((hydroxycarbamoyl)methyl)phenyl)-3,4-dimethoxy benzamide]
MDA, HNE [1, 2]: 150 | Collagen biosynthesis (%) (Human fibroblasts): 111% | Size of skin pore (mice): 55 µm

CCOc1ccc(C(=O)Nc2ccc(CC(=O)NO)cc2)cc1OCC [Example 14, N-(4-((hydroxycarbamyl)methyl)phenyl)-3,4-diethoxy benzamide]
MDA, HNE [1, 2]: 220 | Collagen biosynthesis (%) (Human fibroblasts): 121% | Size of skin pore (mice): 50 µm

CC(C)Oc1ccc(C(=O)Nc2ccc(CC(=O)NO)cc2)cc1OC(C)C [Example 15, N-(4-((hydroxycarbamoyl)methyl)phenyl)-3,4-diisopropoxy benzamide]
MDA, HNE [1, 2]: 213 | Collagen biosynthesis (%) (Human fibroblasts): 134% | Size of skin pore (mice): 51 µm

CCCOc1ccc(C(=O)Nc2ccc(CC(=O)NO)cc2)cc1OCCC [Example 16, N-(4-((hydroxycarbamoyl)methyl)phenyl)-3,4-dipropoxy benzamide]
MDA, HNE [1, 2]: 199 | Collagen biosynthesis (%) (Human fibroblasts): 131% | Size of skin pore (mice): 52 µm

CCCCOc1ccc(C(=O)Nc2ccc(CC(=O)NO)cc2)cc1OCCCC [Example 17, N-(4-((hydroxycarbamoyl)methyl)phenyl)-3,4-dibutoxy benzamide]
MDA, HNE [1, 2]: 200 | Collagen biosynthesis (%) (Human fibroblasts): 123% | Size of skin pore (mice): 56 µm

CC(C)(C)Oc1ccc(C(=O)Nc2ccc(CC(=O)NO)cc2)cc1OC(C)(C)C [Example 18, N-(4-((hydroxycarbamoyl)methyl)phenyl)-3,4-di-tert-butoxy benzamide]
MDA, HNE [1, 2]: 232 | Collagen biosynthesis (%) (Human fibroblasts): 122% | Size of skin pore (mice): 57 µm

COc1ccc(C(=O)Nc2ccc(CC(=O)N(C)O)cc2)cc1OC [Example 19]
MDA, HNE [1, 2]: 212 | Collagen biosynthesis (%) (Human fibroblasts): 142% | Size of skin pore (mice): 54 µm

CCOc1ccc(C(=O)Nc2ccc(CC(=O)N(C)O)cc2)cc1OCC [Example 20]
MDA, HNE [1, 2]: 196 | Collagen biosynthesis (%) (Human fibroblasts): 123% | Size of skin pore (mice): 51 µm

CC(C)Oc1ccc(C(=O)Nc2ccc(CC(=O)N(C)O)cc2)cc1OC(C)C [Example 21]
MDA, HNE [1, 2]: 190 | Collagen biosynthesis (%) (Human fibroblasts): 121% | Size of skin pore (mice): 55 µm

CCCOc1ccc(C(=O)Nc2ccc(CC(=O)N(C)O)cc2)cc1OCCC [Example 22]
MDA, HNE [1, 2]: 188 | Collagen biosynthesis (%) (Human fibroblasts): 122% | Size of skin pore (mice): 52 µm

CCCCOc1ccc(C(=O)Nc2ccc(CC(=O)N(C)O)cc2)cc1OCCCC [Example 23]
MDA, HNE [1, 2]: 188 | Collagen biosynthesis (%) (Human fibroblasts): 123% | Size of skin pore (mice): 51 µm

CN(O)C(=O)Cc1ccc(NC(=O)c2ccc(OC(C)(C)C)c(OC(C)(C)C)c2)cc1 [Example 24]
MDA, HNE [1, 2]: 197 | Collagen biosynthesis (%) (Human fibroblasts): 131% | Size of skin pore (mice): 50 µm

Cc1c(C)c2c(c(C)c1O)CC[C@@](C)(CCC[C@H](C)CCC[C@H](C)CCCC(C)C)O2 [Tocoperol, tocoperol, reference compound]
MDA, HNE [1, 2]: 250 | Collagen biosynthesis (%) (Human fibroblasts): 113% | Size of skin pore (mice): 64 µm

CC(C)(C)OO [t-BHP, t-butyl hydroperoixe, reference compound]
MDA, HNE ([1]; HaCaT cells treated with 4 mM t-BHP alone for 4 hours): 320
